These are literature values, as cited in US10421964B2, “UNA oligomers and compositions for treating amyloidosis” (Arcturus Therapeutics, Inc., priority 2015, dated 2019).

For this series the following is noted: lipid; cited from earlier work.

For the compound `CCCCCC/C=C\COC(=O)CCCCCCCN(CCCCCCCC(=O)OC/C=C\CCCCCC)C(=O)SCCCN(CC)CC` [ATX- 012], the pKa was 10.

On to `CCCCCC/C=C\COC(=O)CCCCCCCN(CCCCCCCC(=O)OC/C=C\CCCCCC)C(=O)CSCCCN(CC)CC` [ATX- 008], for which the pKa was 10.
